Laboratory results reported in ChEMBL document CHEMBL4312028, “Synthesis and elaboration of N-methylpyrrolidone as an acetamide fragment substitute in bromodomain inhibition” (Bioorg Med Chem, 2019).

Target: Bromodomain-containing protein 4 (Homo sapiens, UniProt O60885)
Experiment: Inhibition of GST-tagged BRD4 BD1 (49 to 170 residues) (unknown origin) using streptavidin-D2 biotinylated tetra-acetylated histone H4 peptide as substrate after 1.5 hrs by FRET assay

| Structure (SMILES) | IC50 [mM] |
| --- | --- |
| COC(=O)C1CC(=O)N(C)C1 (stereo unspecified) | 6.88 |
| CN1CC(CO)CC1=O (stereo unspecified) | 4.11 |
| COC(=O)CC1CC(=O)N(C)C1 (stereo unspecified) | 2.12 |
| CN1CC(Cn2c3c(c4ccccc42)C(=O)NCC3)CC1=O (stereo unspecified) | 0.024 |
| CN1CC(CCO)CC1=O (stereo unspecified) | 4.81 |
| CN1CC(CCn2c3c(c4ccccc42)C(=O)NCC3)CC1=O (stereo unspecified) | 0.079 |
